Like-named read-outs stand apart in the source and are kept apart here. Values belong to the molecule of their own block, whether it stands above or below them.
Tests used:
[1] = molecular target: Histamine H3 receptor (H3R); conditions: Table A in S1 File, cited from earlier work
[2] = molecular target: Histamine H3 receptor (H3R); conditions: Table A in S1 File, cited from earlier work; remark: listed apart in the source
hH3R = molecular target: T1, hH3R (Homo sapiens, UniProt Q9Y5N1); experiment: Radioligand depletion assay with [3H]-N-alpha-methylhistamine on crude hH3R membrane extracts; type: binding; conditions: for Ki: mean of at least three independent experiments, each in triplicates, Cheng-Prusoff; for H3R binding, result in words: radioligand depletion assay against H3R
T1 construct: expressed in transfected cells; host or cells: HEK-293 cells stably expressing hH3R
Experimental: Radioligand depletion assays were performed as described previously using crude hH3R membrane extracts obtained from HEK-293 cells stably expressing the hH3R [15, 57]. Briefly, crude membrane extracts were incubated with various concentrations of test ligands (between 0.01 nM and 100 μM) and [3H]-N-alpha-methylhistamine. Bound radioligand were harvested through GF/B filters and measured using liquid scintillation counting. Data analysis were performed with GraphPad Prism 6 using non-linear regression. The Ki values for each experiment were obtained according to Cheng-Prusoff and converted to pKi values to allow statistical analysis. Mean values were calculated from at least three independent experiments, each performed in triplicates (Table E in S1 File).

T1 sequence (Q9Y5N1 whole entry): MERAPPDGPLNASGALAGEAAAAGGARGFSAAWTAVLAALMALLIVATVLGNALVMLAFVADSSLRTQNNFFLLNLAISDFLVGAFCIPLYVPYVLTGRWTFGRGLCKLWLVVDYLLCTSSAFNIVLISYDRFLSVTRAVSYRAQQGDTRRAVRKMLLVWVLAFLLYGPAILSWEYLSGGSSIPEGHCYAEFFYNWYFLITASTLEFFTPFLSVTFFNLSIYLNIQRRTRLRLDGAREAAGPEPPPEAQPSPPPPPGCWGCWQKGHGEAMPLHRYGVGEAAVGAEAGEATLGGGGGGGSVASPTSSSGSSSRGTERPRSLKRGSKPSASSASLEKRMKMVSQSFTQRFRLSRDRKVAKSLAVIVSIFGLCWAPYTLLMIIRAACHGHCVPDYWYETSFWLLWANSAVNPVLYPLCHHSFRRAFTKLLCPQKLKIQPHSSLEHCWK

SMILES: CC(C)N1CCN(C(=O)[C@H]2CC23CCN(C2CCOCC2)CC3)CC1 [CHEMBL3124968]
- IC50 ([1]; ref 8 (S1 File)): 8.3 nM

SMILES: C[C@@H]1CCCN1CCc1cc2cc(CNc3ccc(Cl)nn3)ccc2o1 [CHEMBL362952]
- Ki ([2]; ref 10 (S1 File)): 0.3 nM

- Ki (hH3R): 38.2 nM
- H3R binding, result in words (hH3R): nanomolar concentration ranges
SMILES: CCN1CCN(C(=O)c2ccc(-c3nc4ccccc4s3)s2)CC1 [compound 6]

SMILES: c1nc([C@H]2C[C@@H]2CCNCC2CCCCC2)c[nH]1 [CHEMBL214312]
- Ki ([2]; ref 7 (S1 File)): 5.3 nM

SMILES: CN(C)CCc1ccc(NC(=O)Nc2ccc(CCN(C)C)cc2)cc1 [CHEMBL2387294]
- IC50 ([1]; ref 2 (S1 File)): 6.5 nM

SMILES: C[C@@H]1C[C@@](O)(C#Cc2cccc3ccccc23)[C@@H](C)CN1C [CHEMBL1269844]
- IC50 ([1]; ref 3 (S1 File)): 9 nM

- Ki (hH3R): 148 nM
- H3R binding, result in words (hH3R): nanomolar concentration ranges
SMILES: O=C(c1csc(-c2ccccc2)n1)N1CCCN(C2CC2)CC1 [compound 5]

- H3R binding, result in words (hH3R): inactive
SMILES: Cc1csc(-c2ccc(C(=O)N3CCN(C)CC3)cc2)n1 [compound 8]

SMILES: C[C@@H]1CCCN1CCCOc1ccc(-c2cc(-c3ccccc3)c(=O)n(C)c2)cc1 [CHEMBL1923737]
- Ki ([2]; ref 5 (S1 File)): 3.5 nM

SMILES: CCNC(=O)C1CC(F)(c2ccc(CN3CCCC3)c(F)c2)C1 (centres unmarked) [CHEMBL2151197]
- Ki ([2]; ref 9 (S1 File)): 2.3 nM

SMILES: c1ccc2c(CCNc3ccc(CN4CCOCC4)cc3)c[nH]c2c1 [CHEMBL2419581]
- Ki ([2]; ref 4 (S1 File)): 4.3 nM

SMILES: N#CC(C#N)=C1N(CCCN2CCCCC2)CCN1CCCN1CCCCC1 [CHEMBL257391]
- Ki ([2]; ref 6 (S1 File)): 2.4 nM
